From PubChem BioAssay AID1963427 (Molecular Pharmacology Branch, DTP, NCI, 2024)

System: 317291-083-R-J1-PDC complex spheroid growth
Test: Anticancer human tumor 317291-083-R-J1-PDC patient-derived soft tissue sarcoma cell line growth inhibition [Asc]
Settings: for IC50: curve of first compound; for viability, T/C: stronger effect = lower value
In short: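 Complex solid-tumor spheroids incorporating human endothelial and mesenchymal stem cells received single agents or combinations over half-log dilution ranges anchored to clinical Cmax.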

[1] = second compound 0.00316 µM, first compound 0.00316 µM
[2] = second compound 0.00316 µM, first compound 0.01 µM
[3] = second compound 0.00316 µM, first compound 0.0316 µM
[4] = second compound 0.00316 µM, first compound 0.1 µM
[5] = second compound 0.00316 µM, first compound 0.316 µM
[6] = second compound 0.00316 µM, first compound 1 µM
[7] = second compound 0.01 µM, first compound 0.00316 µM
[8] = second compound 0.01 µM, first compound 0.01 µM
[9] = second compound 0.01 µM, first compound 0.0316 µM
[10] = second compound 0.01 µM, first compound 0.1 µM
[11] = second compound 0.01 µM, first compound 0.316 µM
[12] = second compound 0.01 µM, first compound 1 µM
[13] = second compound 0.0316 µM, first compound 0.00316 µM
[14] = second compound 0.0316 µM, first compound 0.01 µM
[15] = second compound 0.0316 µM, first compound 0.0316 µM
[16] = second compound 0.0316 µM, first compound 0.1 µM
[17] = second compound 0.0316 µM, first compound 0.316 µM
[18] = second compound 0.0316 µM, first compound 1 µM
[19] = second compound 0.1 µM, first compound 0.00316 µM
[20] = second compound 0.1 µM, first compound 0.01 µM
[21] = second compound 0.1 µM, first compound 0.0316 µM
[22] = second compound 0.1 µM, first compound 0.1 µM
[23] = second compound 0.1 µM, first compound 0.316 µM
[24] = second compound 0.1 µM, first compound 1 µM
[25] = second compound 0.316 µM, first compound 0.00316 µM
[26] = second compound 0.316 µM, first compound 0.01 µM
[27] = second compound 0.316 µM, first compound 0.0316 µM
[28] = second compound 0.316 µM, first compound 0.1 µM
[29] = second compound 0.316 µM, first compound 0.316 µM
[30] = second compound 0.316 µM, first compound 1 µM
[31] = second compound 1 µM, first compound 0.00316 µM
[32] = second compound 1 µM, first compound 0.01 µM
[33] = second compound 1 µM, first compound 0.0316 µM
[34] = second compound 1 µM, first compound 0.1 µM
[35] = second compound 1 µM, first compound 0.316 µM
[36] = second compound 1 µM, first compound 1 µM
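Note: compound exposure lasted seven days after spheroids formed for three days.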
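Throughout, for viability, T/C: 100% = DMSO vehicle control wells.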

Compound: CCN1CCN(Cc2ccc(Nc3ncc(F)c(-c4cc(F)c5nc(C)n(C(C)C)c5c4)n3)nc2)CC1 + CNC(C)C(=O)NC1CN(S(=O)(=O)c2cccc(S(=O)(=O)N3CCC4CCC(C(=O)NC(c5ccccc5)c5ccccc5)N4C(=O)C(NC(=O)C(C)NC)C3)c2)CCC2CCC(C(=O)NC(c3ccccc3)c3ccccc3)N2C1=O
- IC50 (second compound 0.00316 µM): 345 nM
- IC50 (second compound 0.01 µM): 320 nM
- IC50 (second compound 0.0316 µM): 140 nM
- IC50 (second compound 0.1 µM): 71 nM
- IC50 (second compound 0.316 µM): 18.1 nM
- IC50 (second compound 1 µM): < 3.16 nM
- viability, T/C [1]: 54.7%
- viability, T/C [2]: 58.7%
- viability, T/C [3]: 56.8%
- viability, T/C [4]: 65%
- viability, T/C [5]: 48.9%
- viability, T/C [6]: 28%
- viability, T/C [7]: 89.1%
- viability, T/C [8]: 90%
- viability, T/C [9]: 79.2%
- viability, T/C [10]: 76%
- viability, T/C [11]: 48.8%
- viability, T/C [12]: 31.6%
- viability, T/C [13]: 80.3%
- viability, T/C [14]: 79.6%
- viability, T/C [15]: 64.9%
- viability, T/C [16]: 58.4%
- viability, T/C [17]: 35.7%
- viability, T/C [18]: 40.9%
- viability, T/C [19]: 60.9%
- viability, T/C [20]: 50.2%
- viability, T/C [21]: 53.8%
- viability, T/C [22]: 45.6%
- viability, T/C [23]: 43.5%
- viability, T/C [24]: 22.2%
- viability, T/C [25]: 58.6%
- viability, T/C [26]: 49.4%
- viability, T/C [27]: 42.8%
- viability, T/C [28]: 48%
- viability, T/C [29]: 33.4%
- viability, T/C [30]: 22.7%
- viability, T/C [31]: 32.9%
- viability, T/C [32]: 36.6%
- viability, T/C [33]: 36.6%
- viability, T/C [34]: 31.4%
- viability, T/C [35]: 32.2%
- viability, T/C [36]: 19.5%

Compound: NC(=O)C(=Cn1cnc(-c2cc(C(F)(F)F)cc(C(F)(F)F)c2)n1)c1cncnc1 + CNC(C)C(=O)NC1CN(S(=O)(=O)c2cccc(S(=O)(=O)N3CCC4CCC(C(=O)NC(c5ccccc5)c5ccccc5)N4C(=O)C(NC(=O)C(C)NC)C3)c2)CCC2CCC(C(=O)NC(c3ccccc3)c3ccccc3)N2C1=O
- IC50 (second compound 0.00316 µM): 10.4 nM
- IC50 (second compound 0.01 µM): 17.5 nM
- IC50 (second compound 0.0316 µM): 20.6 nM
- IC50 (second compound 0.1 µM): 8.13 nM
- IC50 (second compound 0.316 µM): 12.4 nM
- IC50 (second compound 1 µM): 2.22 nM
- viability, T/C (second compound 0.00316 µM, first compound 0.000949 µM): 75.5%
- viability, T/C (second compound 0.00316 µM, first compound 0.003 µM): 72.6%
- viability, T/C (second compound 0.00316 µM, first compound 0.00949 µM): 47.7%
- viability, T/C (second compound 0.00316 µM, first compound 0.03 µM): 32.1%
- viability, T/C (second compound 0.00316 µM, first compound 0.0949 µM): 5.77%
- viability, T/C (second compound 0.00316 µM, first compound 0.3 µM): 2.39%
- viability, T/C (second compound 0.01 µM, first compound 0.000949 µM): 105%
- viability, T/C (second compound 0.01 µM, first compound 0.003 µM): 96.1%
- viability, T/C (second compound 0.01 µM, first compound 0.00949 µM): 74.5%
- viability, T/C (second compound 0.01 µM, first compound 0.03 µM): 29.3%
- viability, T/C (second compound 0.01 µM, first compound 0.0949 µM): 4.51%
- viability, T/C (second compound 0.01 µM, first compound 0.3 µM): 2.62%
- viability, T/C (second compound 0.0316 µM, first compound 0.000949 µM): 101%
- viability, T/C (second compound 0.0316 µM, first compound 0.003 µM): 92.5%
- viability, T/C (second compound 0.0316 µM, first compound 0.00949 µM): 75.6%
- viability, T/C (second compound 0.0316 µM, first compound 0.03 µM): 39.5%
- viability, T/C (second compound 0.0316 µM, first compound 0.0949 µM): 4.33%
- viability, T/C (second compound 0.0316 µM, first compound 0.3 µM): 1.8%
- viability, T/C (second compound 0.1 µM, first compound 0.000949 µM): 74.4%
- viability, T/C (second compound 0.1 µM, first compound 0.003 µM): 73%
- viability, T/C (second compound 0.1 µM, first compound 0.00949 µM): 45.3%
- viability, T/C (second compound 0.1 µM, first compound 0.03 µM): 16.6%
- viability, T/C (second compound 0.1 µM, first compound 0.0949 µM): 3.12%
- viability, T/C (second compound 0.1 µM, first compound 0.3 µM): 1.09%
- viability, T/C (second compound 0.316 µM, first compound 0.000949 µM): 63.2%
- viability, T/C (second compound 0.316 µM, first compound 0.003 µM): 68.2%
- viability, T/C (second compound 0.316 µM, first compound 0.00949 µM): 60.1%
- viability, T/C (second compound 0.316 µM, first compound 0.03 µM): 16.1%
- viability, T/C (second compound 0.316 µM, first compound 0.0949 µM): 1.31%
- viability, T/C (second compound 0.316 µM, first compound 0.3 µM): 2.22%
- viability, T/C (second compound 1 µM, first compound 0.000949 µM): 67.3%
- viability, T/C (second compound 1 µM, first compound 0.003 µM): 38.9%
- viability, T/C (second compound 1 µM, first compound 0.00949 µM): 34.8%
- viability, T/C (second compound 1 µM, first compound 0.03 µM): 12.6%
- viability, T/C (second compound 1 µM, first compound 0.0949 µM): 2.47%
- viability, T/C (second compound 1 µM, first compound 0.3 µM): 1.44%

Compound: O=C(c1ccc(F)c(F)c1Nc1ccc(I)cc1F)N1CC(O)([C@@H]2CCCCN2)C1 + CNC(C)C(=O)NC1CN(S(=O)(=O)c2cccc(S(=O)(=O)N3CCC4CCC(C(=O)NC(c5ccccc5)c5ccccc5)N4C(=O)C(NC(=O)C(C)NC)C3)c2)CCC2CCC(C(=O)NC(c3ccccc3)c3ccccc3)N2C1=O
- IC50 (second compound 0.00316 µM): 203 nM
- IC50 (second compound 0.01 µM): 244 nM
- IC50 (second compound 0.0316 µM): 258 nM
- IC50 (second compound 0.1 µM): 74.4 nM
- IC50 (second compound 0.316 µM): 78.1 nM
- IC50 (second compound 1 µM): < 3.16 nM
- viability, T/C [1]: 75.5%
- viability, T/C [2]: 69.5%
- viability, T/C [3]: 63.3%
- viability, T/C [4]: 71.5%
- viability, T/C [5]: 37.5%
- viability, T/C [6]: 13.9%
- viability, T/C [7]: 100%
- viability, T/C [8]: 73.2%
- viability, T/C [9]: 75.2%
- viability, T/C [10]: 91.7%
- viability, T/C [11]: 39.8%
- viability, T/C [12]: 23.4%
- viability, T/C [13]: 92%
- viability, T/C [14]: 72%
- viability, T/C [15]: 73.6%
- viability, T/C [16]: 90%
- viability, T/C [17]: 43.1%
- viability, T/C [18]: 14.7%
- viability, T/C [19]: 72.3%
- viability, T/C [20]: 83.5%
- viability, T/C [21]: 56.3%
- viability, T/C [22]: 49.9%
- viability, T/C [23]: 19%
- viability, T/C [24]: 8.71%
- viability, T/C [25]: 60.1%
- viability, T/C [26]: 63.7%
- viability, T/C [27]: 47.8%
- viability, T/C [28]: 47.9%
- viability, T/C [29]: 38.6%
- viability, T/C [30]: 7.49%
- viability, T/C [31]: 37.1%
- viability, T/C [32]: 42.3%
- viability, T/C [33]: 37.9%
- viability, T/C [34]: 33.5%
- viability, T/C [35]: 14.8%
- viability, T/C [36]: 5.83%
